In ChEMBL document CHEMBL1201862, “PubChem BioAssay data set” (2004):
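Protocol summary: plate cells (96-well), add compound at 5 concentrations, incubate 48 h, interpolate endpoints linearly. Here, GI50 denotes the concentration required for 50% inhibition of growth.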 The source made the active and inactive calls. Cut-off read from the data, not from the text of the source: active = GI50 up to about 1.1 µM and inactive = higher.

Legend:
Assay in all cases: NCI anticancer screen, dose series, 48 h
UACC-62 = system: UACC-62
K562 = system: K562
PC-3 = system: PC-3
MDA-MB-231 = system: MDA-MB-231
SF-268 = system: SF-268
IGROV-1 = system: IGROV-1
LOX IMVI = system: LOX IMVI
SK-MEL-5 = system: SK-MEL-5
MCF7 = system: MCF7
CAKI-1 = system: CAKI-1
SR = system: SR
MOLT-4 = system: MOLT-4
HCT-15 = system: HCT-15
SK-OV-3 = system: SK-OV-3
NCI-H23 = system: NCI-H23
HL-60 = system: HL-60
HCT-116 = system: HCT-116
Hs-578T = system: Hs-578T
RXF 393 = system: RXF 393
UO-31 = system: UO-31

Question: What does the source list for `CN(C)CCCOC(=O)C(c1ccccc1)C1(O)CCSCC1` (stereo not given)?
Answer: GI50 (UACC-62): > 100 µM (inactive); GI50 (K562): > 100 µM (inactive); GI50 (PC-3): > 100 µM (inactive); GI50 (MDA-MB-231): > 100 µM (inactive); GI50 (SF-268): > 100 µM (inactive); GI50 (IGROV-1): > 100 µM (inactive); GI50 (LOX IMVI): > 100 µM (inactive); GI50 (SK-MEL-5): > 100 µM (inactive); GI50 (MCF7): > 100 µM (inactive); GI50 (CAKI-1): 32.7 µM (inactive); GI50 (SR): > 100 µM (inactive); GI50 (MOLT-4): > 100 µM (inactive); GI50 (HCT-15): > 100 µM; GI50 (SK-OV-3): > 100 µM (inactive); GI50 (NCI-H23): > 100 µM (inactive); GI50 (HL-60): > 100 µM (inactive); GI50 (HCT-116): > 100 µM (inactive); GI50 (Hs-578T): > 100 µM (inactive); GI50 (RXF 393): > 100 µM (inactive); GI50 (UO-31): > 100 µM (inactive)
